What follows are compounds tested against Bromodomain-containing protein 4 (Homo sapiens, UniProt O60885) (assay: Displacement of Alexafluor 647-conjugated PFI-1 from N-terminal-His6-tagged human BRD4 BD1 domain (44 to 170 residues) incubated for 30 mins by fluorescence polarization assay).

Row | SMILES | IC50 [nM]
1 | CNCCN(C)c1ccc2nnc(C)n2n1 | > 30000
2 | CCc1nnc2ccc(N(C)C[C@H]3CC[C@H](N)CC3)nn12 | 790
3 | Cc1nnc2ccc(N(C)CCC3CCNCC3)nn12 | 2420
4 | CN(C[C@H]1CC[C@H](N)CC1)c1ccc2nncn2n1 | 11800

— ChEMBL document CHEMBL4834448, “Toward the assembly and characterization of an encoded library hit confirmation platform: Bead-Assisted Ligand Isolation Mass Spectrometry (BALI-MS)” (Bioorg Med Chem, 2021)
